Laboratory results taken from patent publication US20220354858A1, “METHOD FOR TREATING MALIGNANT TUMOR” (TAIHO PHARMACEUTICAL CO., LTD., priority 2019, published 2022).
Several values for one entry are separate records, joined by “and”; a condition that tells them apart may be missing. Identical values can stand only once. Like-named read-outs stand apart in the source and are kept apart here.

What was measured:
[1] = test system: Human ovarian cancer cell line OVCAR-3; assay: Administration schedule study in nude mouse model subcutaneously transplanted with OVCAR-3; type: in vivo; settings: OVCAR-3 xenograft, FIG. 1
Method: Human ovarian cancer cell line OVCAR-3 (American Type Culture Collection (ATCC)) that had been subcutaneously subcultured in mice was cut to about 2 mm squares and subcutaneously transplanted into 5-week-old […] BALB/cAJcl-nu/nu mice (CLEA Japan, Inc.) using a transplantation needle.
The grouping day was defined as Day 1.
The tumor volume (TV) was calculated using the following formula.
TV=(major axis×minor axis×minor axis)×½
Requisite amounts of Compound 1 were weighed, and each was individually suspended in a 0.5% (w/v) hydroxypropyl methylcellulose (HPMC) aqueous solution to prepare administration liquids having appropriate concentrations. For the control group, a 0.5% (w/v) HPMC aqueous solution was used as an administration liquid.
The administration amount was 10 mL/kg body weight, and each administration liquid was individually injected into the stomach of the mice with a feeding needle.
Twice a week, the major axis and the minor axis of each tumor were measured from the skin with an electronic caliper, and the following items were further calculated. These were used as indexes to confirm the presence or absence of an antitumor effect.
Tumor volume (TVn)=(major axis×minor axis×minor axis)×½ […]
On the same days as the tumor volume measurement, the body weight (BW) of the mice was measured with an electronic balance, and the body weight change (BWC) was further calculated. […]

advanced solid cancers = assay: Optimal dosage regimen study in humans: safety (non-prescribed withdrawal) and efficacy (RECIST) profiles; type: in vivo, human; settings: for Non-prescribed withdrawal: N = 6
Method: With regard to Example 3, the optimal dosage regimen of Compound 1 was studied. The safety profiles and efficacy profiles when the recommend doses were administered in the schedule of administration for 7 consecutive days and the schedule of 4-administration with 3-withdrawal were compared in patients with advanced solid cancers for which standard treatment options were not available.
For the safety profiles, non-prescribed withdrawal periods were compared. The non-prescribed withdrawal period is a comprehensive index of safety profiles.
In this Example, dose modification criteria in the case of the occurrence of a toxicity for which a causal relationship to the drug cannot be denied were shown. Dose modification criteria for non-hematologic toxicities, dose modification criteria for hematologic toxicities, and dose modification criteria for other toxicities were set. When any of these criteria was met, a prescribed day to perform drug administration was changed to a day on which the drug is not administered, i.e., a non-prescribed withdrawal period.
The dose modification criteria for non-hematologic toxicities for which a causal relationship to the drug cannot be denied were set as follows.
With regard to fasting blood glucose, if symptomatic grade 4 hyperglycemia or grade 3 or higher hyperglycemia for more than 7 days develops, the administration is discontinued (non-prescribed withdrawal). If the condition recovers to grade 1 or grade 0, the administration can be resumed. When the administration is resumed, the administration amount is reduced by one level from the original administration amount. However, for adverse events (e.g., fatigue and skin dryness) that are judged to be less likely to become serious or worsen to life-threatening events, the administration of the drug can be continued at the same administration amount without dose reduction or administration discontinuation, regardless of the grades of the events.
In the case of DLTs or grade 3 or higher non-hematologic toxicities as other toxicities, the administration is discontinued (non-prescribed withdrawal). If the condition recovers to grade 1 or less or to the baseline, the administration can be resumed. As grade 3 or higher non-hematologic toxicities, grade 3 nausea and/or vomiting that could be treated by intensive antiemetic therapy, grade 3 diarrhea in which an antidiarrheal was effective, and grade 3 skin toxicity that could be treated by intensive skin treatment with, for example, a topical steroid and/or an oral corticosteroid are excluded. When the administration is resumed, the administration amount is reduced by one level from the original administration amount. However, for adverse events (e.g., fatigue and skin dryness) that are judged to be less likely to become serious or worsen to life-threatening events, the administration of the drug can be continued at the same administration amount without dose reduction or administration discontinuation, regardless of the grades of the events.
The dose modification criteria for hematologic toxicities for which a causal relationship to the drug cannot be denied were set as follows.
If the neutrophil count is less than 500/mm^3, the administration is discontinued (non-prescribed withdrawal). If the neutrophil count recovers to 1500/mm^3 or more, the administration can be resumed. […] In the case of asymptomatic neutropenia lasting more than 7 days or neutropenia with a symptom (neutropenia with an infectious disease or fever), the administration amount is reduced by one level from the original administration amount.
If the platelet count is less than 25000/mm^3, the administration is discontinued (non-prescribed withdrawal). If the platelet count recovers to 75000/mm^3 or more, the administration can be resumed. When the administration is resumed, the administration amount is reduced by one level from the original administration amount. […]

[2] = mice; cited from earlier work
[3] = Dose escalation (3+3 design) to determine recommend dose and administration schedule in humans; type: in vivo, human; settings: oral once a day, patients with advanced solid cancers
Method: This test was performed to determine the recommend dose and administration schedule of Compound 1 and investigate the safety profile of Compound 1 for patients with advanced solid cancers for which standard treatment options are not available.
In this Example, first, the recommend doses for the schedule of administration for 7 consecutive days and the schedule of 4-administration with 3-withdrawal were determined. In the schedule of administration of Compound 1 for 7 consecutive days, Compound 1 was orally administered consecutively once a day for three courses for a total duration of 21 days, with one course taken as 7 days. In 4-administration with 3-withdrawal, Compound 1 was orally administered once a day on day 1 to day 4, day 8 to day 11, and day 15 to day 18 of three courses for a total duration of 21 days, with one course taken as 7 days.
In the schedule of administration for 7 consecutive days, the administration amount taken at one time started at 4 mg/body/day. […]
In the present invention, the 3+3 design was performed in the following manner. […] Whether the level proceeds is determined by the investigator and the sponsor based on comprehensive considerations of not only the information on DLTs, but also all related toxicities regardless of whether they are DLTs, and drugs used in combination/combination therapy from a clinical perspective. […]

[4] = Pharmacokinetics of Compound 1 in humans; type: in vivo, human; settings: for Blood concentration remaining before administration: 24 mg/body/day, 4-administration with 3-withdrawal
Method: The pharmacokinetics of the recommend doses of Compound 1 in administration for 7 consecutive days and 4-administration with 3-withdrawal were measured in patients with advanced solid cancers for which standard treatment options were not available.
In the administration for 7 consecutive days, Compound 1 was orally administered once a day at a dose of 16 mg/body/day for three courses for a total duration of 21 days, with one course taken as 7 days. Blood samples were taken over time on day 1 and day 21, which was the last administration day of the three courses, to measure the pharmacokinetics.
In the 4-administration with 3-withdrawal, Compound 1 was orally administered once a day at a dose of 24 mg/body/day for three courses for a total duration of 21 days, with one course taken as 7 days. Blood samples were taken over time on day 1 and day 18, which was the last administration day of the three courses, to measure the pharmacokinetics. Blood samples were also taken immediately before administration on day 3, day 4, and day 8.

[5] = humans; cited from earlier work
[6] = 4-administration with 3-withdrawal, 24 mg/body/day
[7] = administration for 7 consecutive days, 16 mg/body/day

Row | Compound | Body weight change ([1]; each Compound 1 administration group) | Antitumor effect (RTV, T/C) ([1]; oral 16 or 24 mg/kg/day 7 consecutive days or 24 mg/kg/day 4-administration with 3-withdrawal, Days 1-21) | Non-prescribed withdrawal period (advanced solid cancers; [6]) | Non-prescribed withdrawal (advanced solid cancers; [6]) | RECIST evaluation (advanced solid cancers; 4-administration with 3-withdrawal, 24 mg/body/day, six patients) | RECIST evaluation (advanced solid cancers; [7]) | Non-prescribed withdrawal (advanced solid cancers; [7]) | Non-prescribed withdrawal period (advanced solid cancers; administration for 7 consecutive days, 16 mg/body/day, average) [days] | Tumor shrinkage effect (waterfall plots), 4-administration with 3-withdrawal versus 7 consecutive days (advanced solid cancers; recommend doses, FIG. 4) | Half-life [2] | Maximum tolerable administration amount (recommend dose) ([3]; 4-administration with 3-withdrawal) [mg/body/day] | Maximum tolerable administration amount (recommend dose) ([3]; administration for 7 consecutive days) [mg/body/day] | Accumulation (blood drug concentrations day 21 or day 18 versus day 1) ([4]; 16 mg/body/day 7 consecutive days and 24 mg/body/day 4-administration with 3-withdrawal) | Blood concentration remaining before administration ([4]; day 3) [ng/mL] | Blood concentration remaining before administration ([4]; day 4) [ng/mL] | Half-life ([4]; human, blood, humans, oral) [min] | Half-life [5]
1 | C[C@]1(O)C[C@@](N)(c2ccc(-c3nc4n(c3-c3ccccc3)COc3ccncc3-4)cc2)C1 [Compound 1, trans-3-amino-1-methyl-3-(4-(3-phenyl-5H-imidazo[1,2-c]pyrido[3,4-e][1,3]oxazin-2-yl)phenyl)cyclobutanol] | without serious weight loss | excellent antitumor effect | 2 days and 2.0 days | one of six patients and 1/6 | two of the six patients had stable disease (SD) | all of the patients had progressive disease (PD) | three of six patients and 3/6 | 3.7 | superior | about 2.3 hours | 24 | 16 | has accumulation properties | 25.7 | 35.7 | ~2940 | –
2 | AZD5363 | – | – | – | – | – | – | – | – | – | – | – | – | – | – | – | – | about 6 hours
